Assay results: PubChem BioAssay AID328 (DTP/NCI, 2004)
“And” between values parts separate entries of the source, which are not always exact repeats. Identical values can stand only once. Inconclusive results and toxic doses are left out.

Test system: BDF1 mice, P388 leukemia ip, median survival T/C
Assay: NCI In Vivo Anticancer Drug Screen. Data for tumor model P388 Leukemia (intraperitoneal) in B6D2F1 (BDF1) mice
Conditions: endpoint: median survival time, higher = longer survival
Summary of the method: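 T/C = treated-group survival ÷ vehicle-control survival; tumour transplanted into mice before dosing.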

[1] = dose: 25.0 mg/kg/injection, schedule: Q01DX009 (ip), vehicle: Klucel (hydroxypropylcellulose) (HPC)
[2] = dose: 100.0 mg/kg/injection, schedule: Q04DX003 (ip), vehicle: Klucel (hydroxypropylcellulose) (HPC)
[3] = dose: 6.25 mg/kg/injection, schedule: Q01DX009 (ip), vehicle: saline with Tween-80
[4] = dose: 12.5 mg/kg/injection, schedule: Q01DX009 (ip), vehicle: saline with Tween-80
[5] = dose: 25.0 mg/kg/injection, schedule: Q01DX009 (ip), vehicle: saline with Tween-80
[6] = dose: 100.0 mg/kg/injection, schedule: Q04DX003 (ip), vehicle: saline with Tween-80
[7] = dose: 200.0 mg/kg/injection, schedule: Q04DX003 (ip), vehicle: saline with Tween-80
[8] = dose: 400.0 mg/kg/injection, schedule: Q04DX003 (ip), vehicle: saline with Tween-80

Question: Which T/C (dose: 10.0 mg/kg/injection, schedule: Q01DX010 (ip), vehicle: saline) does the source give for `COc1ccc(-c2oc3cc(O)c(OC)c(O)c3c(=O)c2OC)cc1O` here?
Answer: 100 % of control

Question: What about the T/C (dose: 20.0 mg/kg/injection, schedule: Q01DX010 (ip), vehicle: saline) of the same compound?
Answer: 100 % of control

Question: What about the T/C (dose: 40.0 mg/kg/injection, schedule: Q01DX010 (ip), vehicle: saline) of the same compound?
Answer: 113 % of control

Question: How did the T/C (dose: 100.0 mg/kg/injection, schedule: Q01DX001 (ip), vehicle: saline sonified) turn out when `COc1ccc(S(=O)(=O)NCCC#N)cc1NC(C)=O` was run?
Answer: 100 % of control

Question: What about the T/C (dose: 200.0 mg/kg/injection, schedule: Q01DX001 (ip), vehicle: saline sonified) of the same compound?
Answer: 100 % of control

Question: What about the T/C (dose: 400.0 mg/kg/injection, schedule: Q01DX001 (ip), vehicle: saline sonified) of the same compound?
Answer: 100 % of control

Question: Which T/C (dose: 6.25 mg/kg/injection, schedule: Q01DX009 (ip), vehicle: Klucel (hydroxypropylcellulose) (HPC)) does the source give for `CCCCCCCCCCCCCCC(F)C(=O)O` (centres undefined) here?
Answer: 100 % of control

Question: What about the T/C (dose: 12.5 mg/kg/injection, schedule: Q01DX009 (ip), vehicle: Klucel (hydroxypropylcellulose) (HPC)) of the same compound?
Answer: 91 % of control

Question: And the T/C [1]?
Answer: 91 % of control and 95 % of control

Question: And the T/C [2]?
Answer: 95 % of control

Question: Which T/C (dose: 0.39 mg/kg/injection, schedule: Q04DX003 (ip), vehicle: saline with Tween-80) does the source give for `FC(F)(F)C1=N/C(=C2\N=C(C(F)(F)F)N=C2Cl)C(Cl)=N1` here?
Answer: 100 % of control

Question: And the T/C (dose: 0.78 mg/kg/injection, schedule: Q04DX003 (ip), vehicle: saline with Tween-80)?
Answer: 114 % of control

Question: What about the T/C (dose: 1.56 mg/kg/injection, schedule: Q01DX009 (ip), vehicle: saline with Tween-80) of the same compound?
Answer: 104 % of control

Question: What about the T/C (dose: 1.56 mg/kg/injection, schedule: Q04DX003 (ip), vehicle: saline with Tween-80) of the same compound?
Answer: 100 % of control and 110 % of control

Question: And the T/C (dose: 3.12 mg/kg/injection, schedule: Q01DX009 (ip), vehicle: saline with Tween-80)?
Answer: 116 % of control

Question: What about the T/C (dose: 3.12 mg/kg/injection, schedule: Q04DX003 (ip), vehicle: saline with Tween-80) of the same compound?
Answer: 96 % of control and 100 % of control

Question: What about the T/C [3] of the same compound?
Answer: 116 % of control

Question: What about the T/C (dose: 6.25 mg/kg/injection, schedule: Q04DX003 (ip), vehicle: saline with Tween-80) of the same compound?
Answer: 91 % of control and 100 % of control

Question: What about the T/C [4] of the same compound?
Answer: 111 % of control

Question: What about the T/C (dose: 12.5 mg/kg/injection, schedule: Q04DX003 (ip), vehicle: saline with Tween-80) of the same compound?
Answer: 88 % of control

Question: What about the T/C [5] of the same compound?
Answer: 94 % of control

Question: And the T/C (dose: 25.0 mg/kg/injection, schedule: Q04DX003 (ip), vehicle: saline with Tween-80)?
Answer: 88 % of control

Question: For `CCCCOC1OCN(CCOC)CC1(C)C` (centres undefined), which T/C (dose: 50.0 mg/kg/injection, schedule: Q01DX009 (ip), vehicle: saline with Tween-80) is on record?
Answer: 109 % of control

Question: What about the T/C (dose: 50.0 mg/kg/injection, schedule: Q01DX009 (ip), vehicle: saline) of the same compound?
Answer: 116 % of control

Question: And the T/C (dose: 100.0 mg/kg/injection, schedule: Q01DX009 (ip), vehicle: saline)?
Answer: 109 % of control

Question: And the T/C (dose: 200.0 mg/kg/injection, schedule: Q01DX009 (ip), vehicle: saline with Tween-80)?
Answer: 153 % of control

Question: What about the T/C (dose: 200.0 mg/kg/injection, schedule: Q01DX009 (ip), vehicle: saline) of the same compound?
Answer: 118 % of control

Question: What does the source list for `CCc1ccc(C2=C(O)C(=O)C(c3ccccc3)=C(O)C2=O)cc1`?
Answer: T/C (dose: 12.5 mg/kg/injection, schedule: Q01DX010 (ip), vehicle: saline): 109 % of control; T/C (dose: 50.0 mg/kg/injection, schedule: Q01DX010 (ip), vehicle: saline): 159 % of control

Question: With `O=C(O)C1C=CC(C(=O)O)CC1` (centres undefined) as the compound, how does the T/C [6] read?
Answer: 95 % of control

Question: And the T/C [7]?
Answer: 93 % of control

Question: And the T/C [8]?
Answer: 93 % of control

Question: `O=C(NC1=NN(c2ccccc2)C(=O)C1)Nc1ccccc1` was tested. Which T/C (dose: 87.5 mg/kg/injection, schedule: Q01DX009 (ip), vehicle: saline with Tween-80) did it give?
Answer: 110 % of control

Question: What about the T/C (dose: 175.0 mg/kg/injection, schedule: Q01DX009 (ip), vehicle: saline with Tween-80) of the same compound?
Answer: 103 % of control

Question: What does the source list for `COc1cc(NC(=O)N(CCCl)N=O)cc(OC)c1OC`?
Answer: T/C (dose: 0.88 mg/kg/injection, schedule: Q04DX003 (ip), vehicle: saline + alcohol): 114 % of control; T/C (dose: 1.6 mg/kg/injection, schedule: Q01DX009 (ip), vehicle: saline + alcohol): 168 % of control; T/C (dose: 2.4 mg/kg/injection, schedule: Q01DX009 (ip), vehicle: saline + alcohol): 161 % of control; T/C (dose: 3.0 mg/kg/injection, schedule: Q04DX003 (ip), vehicle: saline + alcohol): 166 % of control; T/C (dose: 3.7 mg/kg/injection, schedule: Q01DX009 (ip), vehicle: saline + alcohol): 203 % of control; T/C (dose: 5.5 mg/kg/injection, schedule: Q04DX003 (ip), vehicle: saline + alcohol): 168 % of control; T/C (dose: 5.56 mg/kg/injection, schedule: Q01DX009 (ip), vehicle: saline + alcohol): 201 % of control and 203 % of control; T/C (dose: 8.3 mg/kg/injection, schedule: Q04DX003 (ip), vehicle: saline + alcohol): 218 % of control; T/C (dose: 8.33 mg/kg/injection, schedule: Q01DX009 (ip), vehicle: saline + alcohol): 220 % of control; T/C (dose: 12.5 mg/kg/injection, schedule: Q01DX009 (ip), vehicle: saline + alcohol): 226 % of control; T/C (dose: 12.5 mg/kg/injection, schedule: Q04DX003 (ip), vehicle: saline + alcohol): 227 % of control; T/C (dose: 18.7 mg/kg/injection, schedule: Q01DX009 (ip), vehicle: saline + alcohol): 111 % of control; T/C (dose: 18.7 mg/kg/injection, schedule: Q04DX003 (ip), vehicle: saline + alcohol): 268 % of control; T/C (dose: 25.0 mg/kg/injection, schedule: Q01DX009 (ip), vehicle: saline + alcohol): 108 % of control

Question: `O=[N+]([O-])c1ccc(N2CCN(Cc3ccccc3)CC2)c2c1no[n+]2[O-]` was tested. Which T/C (dose: 75.0 mg/kg/injection, schedule: Q04DX003 (ip), vehicle: saline with Tween-80) did it give?
Answer: 101 % of control

Question: And the T/C (dose: 300.0 mg/kg/injection, schedule: Q04DX003 (ip), vehicle: saline with Tween-80)?
Answer: 121 % of control

Question: Which results are given for `O=C(O)O.[Mn]`?
Answer: T/C (dose: 100.0 mg/kg/injection, schedule: Q01DX010 (ip), vehicle: water): 86 % of control and 93 % of control; T/C (dose: 200.0 mg/kg/injection, schedule: Q01DX010 (ip), vehicle: water): 91 % of control; T/C (dose: 400.0 mg/kg/injection, schedule: Q01DX010 (ip), vehicle: water): 77 % of control; T/C (dose: 800.0 mg/kg/injection, schedule: Q01DX010 (ip), vehicle: water): 83 % of control and 86 % of control

Question: `CSC1C(=O)Nc2ccc(Cl)cc21` (centres undefined) was tested. Which T/C [6] did it give?
Answer: 97 % of control and 108 % of control

Question: What about the T/C [7] of the same compound?
Answer: 98 % of control and 99 % of control

Question: And the T/C [8]?
Answer: 99 % of control and 110 % of control

Question: What about the T/C (dose: 600.0 mg/kg/injection, schedule: Q04DX003 (ip), vehicle: saline with Tween-80) of the same compound?
Answer: 92 % of control

Question: Which results are given for `CCOC(=O)CC(C)(C)NCc1ccccc1`?
Answer: T/C [1]: 90 % of control; T/C (dose: 25.0 mg/kg/injection, schedule: Q04DX003 (ip), vehicle: Klucel (hydroxypropylcellulose) (HPC)): 108 % of control; T/C (dose: 50.0 mg/kg/injection, schedule: Q04DX003 (ip), vehicle: Klucel (hydroxypropylcellulose) (HPC)): 95 % of control; T/C (dose: 100.0 mg/kg/injection, schedule: Q01DX009 (ip), vehicle: Klucel (hydroxypropylcellulose) (HPC)): 95 % of control; T/C [2]: 116 % of control

Question: With `c1cc[c]([Pb]([c]2ccccc2)[c]2ccccc2)cc1.c1cc[c]([Pb]([c]2ccccc2)[c]2ccccc2)cc1` as the compound, how does the T/C (dose: 3.13 mg/kg/injection, schedule: Q01DX009 (ip), vehicle: saline with Tween-80) read?
Answer: 109 % of control

Question: And the T/C [3]?
Answer: 104 % of control

Question: And the T/C [4]?
Answer: 101 % of control

Question: What about the T/C [5] of the same compound?
Answer: 104 % of control

Question: How did the T/C (dose: 37.5 mg/kg/injection, schedule: Q04DX003 (ip), vehicle: saline sonified) turn out when `Cc1cnc2nc(N)[nH]c(=O)c2c1` was run?
Answer: 100 % of control

Question: What about the T/C (dose: 75.0 mg/kg/injection, schedule: Q04DX003 (ip), vehicle: saline sonified) of the same compound?
Answer: 110 % of control

Question: What about the T/C (dose: 150.0 mg/kg/injection, schedule: Q04DX003 (ip), vehicle: saline sonified) of the same compound?
Answer: 100 % of control

Question: What does the source list for `CC(=O)CC(C)=O.CC(=O)CC(C)=O.[Fe]`?
Answer: T/C (dose: 6.25 mg/kg/injection, schedule: Q01DX009 (ip), vehicle: saline): 113 % of control; T/C (dose: 6.25 mg/kg/injection, schedule: Q04DX003 (ip), vehicle: saline): 113 % of control; T/C (dose: 12.5 mg/kg/injection, schedule: Q01DX009 (ip), vehicle: saline): 104 % of control; T/C (dose: 12.5 mg/kg/injection, schedule: Q04DX003 (ip), vehicle: saline): 113 % of control; T/C (dose: 25.0 mg/kg/injection, schedule: Q01DX009 (ip), vehicle: saline): 113 % of control; T/C (dose: 25.0 mg/kg/injection, schedule: Q04DX003 (ip), vehicle: saline): 113 % of control; T/C (dose: 35.0 mg/kg/injection, schedule: Q04DX003 (ip), vehicle: saline): 113 % of control

Question: How did the T/C (dose: 100.0 mg/kg/injection, schedule: Q01DX001 (ip), vehicle: Klucel (hydroxypropylcellulose) (HPC)) turn out when `O=C(CCCCN1CCc2[nH]c3ccc(F)cc3c2C1)c1ccc(F)cc1` was run?
Answer: 116 % of control

Question: What about the T/C (dose: 200.0 mg/kg/injection, schedule: Q01DX001 (ip), vehicle: Klucel (hydroxypropylcellulose) (HPC)) of the same compound?
Answer: 100 % of control
